US20260347338A1, “PYRIMIDINE/PYRIDINE DERIVATIVES OR SALTS THEREOF AND PHARMACEUTICAL COMPOSITIONS COMPRISING THE SAME” (YUHAN CORPORATION, priority 2023, published 2026)
Where a name gives a salt, the structure may show the parent alone.

Target: T1, human recombinant HPK1 (Homo sapiens, UniProt Q92918)
T1 construct: purchased BPS Bioscience
Test: Inhibitory activity against human recombinant HPK1 (TR-FRET)
Format: biochemical
Conditions: ULight-p70S6K peptide, ATP at Km, room temperature, 1 hour, 0.32 to 1000 nM compound
Outline: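 Recombinant human HPK1 with ULight-p70S6K peptide and ATP at Km, 1 h at room temperature in HEPES pH 7.4 buffer with Mg2+, Mn2+, EGTA, DTT; compounds 0.32–1000 nM final. EDTA stop, Eu-anti-phosphopeptide TR-FRET read (665 nm); IC50 from % inhibition versus DMSO, binned A–D at 10, 50, 100 nM.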

T1 sequence (Q92918 whole entry): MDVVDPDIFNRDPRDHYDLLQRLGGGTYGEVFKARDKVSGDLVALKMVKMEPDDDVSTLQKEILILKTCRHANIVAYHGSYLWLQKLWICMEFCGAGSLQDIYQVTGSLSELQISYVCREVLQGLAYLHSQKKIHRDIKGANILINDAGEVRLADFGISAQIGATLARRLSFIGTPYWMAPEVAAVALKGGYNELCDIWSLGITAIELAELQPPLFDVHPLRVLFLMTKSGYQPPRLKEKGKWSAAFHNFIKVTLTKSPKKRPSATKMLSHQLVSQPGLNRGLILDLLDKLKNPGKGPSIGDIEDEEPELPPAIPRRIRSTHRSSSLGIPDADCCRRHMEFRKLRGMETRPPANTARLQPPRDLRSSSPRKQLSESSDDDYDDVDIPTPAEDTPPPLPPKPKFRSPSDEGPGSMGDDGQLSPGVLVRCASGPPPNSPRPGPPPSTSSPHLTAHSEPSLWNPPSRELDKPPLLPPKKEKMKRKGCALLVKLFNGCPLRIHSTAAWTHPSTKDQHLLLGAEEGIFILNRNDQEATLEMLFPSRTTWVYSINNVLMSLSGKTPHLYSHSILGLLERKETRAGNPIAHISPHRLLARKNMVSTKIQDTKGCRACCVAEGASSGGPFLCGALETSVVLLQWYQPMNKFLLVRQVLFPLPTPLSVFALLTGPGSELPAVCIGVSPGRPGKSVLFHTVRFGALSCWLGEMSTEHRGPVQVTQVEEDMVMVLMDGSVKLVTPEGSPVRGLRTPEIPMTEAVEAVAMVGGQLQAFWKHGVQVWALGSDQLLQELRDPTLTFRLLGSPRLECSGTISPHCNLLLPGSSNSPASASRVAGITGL

SMILES | IC50 [nM]
COc1cccc(F)c1-c1nccc(Nc2cc(N3CCC[C@H](N)C3)c(-c3cnn(C4CCN(C)CC4)c3)cn2)n1 [Example 74, (S)-N-(4-(3-aminopiperidin-1-yl)-5-(1-(1-methylpiperidin-4-yl)-1H-pyrazol-4-yl)pyridin-2-yl)-2-(2-fluoro-6-methoxyphenyl)pyrimidin-4-amine hydrochloride] | ≤ 10
COc1cccc(F)c1-c1nc(Nc2cc(N3CCC[C@H](O)C3)c(-c3cnn(C4CCOCC4)c3)cn2)ccc1Cl [Example 75, (3S)-1-(2-((5-chloro-6-(2-fluoro-6-methoxyphenyl)pyridin-2-yl)amino)-5-(1-(tetrahydro-2H-pyran-4-yl)-1H-pyrazol-4-yl)pyridin-4-yl)piperidin-3-ol] | ≤ 10
COc1cccc(F)c1-c1nc(Nc2cc(N3CCC[C@H](N)C3)c(-c3cnn(C(F)F)c3)cn2)ccc1F [Example 76, 4-((S)-3-aminopiperidin-1-yl)-5-(1-(difluoromethyl)-1H-pyrazol-4-yl)-N-(5-fluoro-6-(2-fluoro-6-methoxyphenyl)pyridin-2-yl)pyridin-2-amine hydrochloride] | ≤ 10
COc1cccc(F)c1-c1nccc(Nc2cc(N3CCC[C@@H](N)C3)c(-c3cnn(CC(F)(F)F)c3)cn2)n1 [Example 77, (R)-N-(4-(3-aminopiperidin-1-yl)-5-(1-(2,2,2-trifluoroethyl)-1H-pyrazol-4-yl)pyridin-2-yl)-2-(2-fluoro-6-methoxyphenyl)pyrimidin-4-amine hydrochloride] | ≤ 10
COc1cccc(F)c1-c1nccc(Nc2cc(N3CCC[C@H](N)C3)c(-c3cnn(CC(F)(F)F)c3)cn2)n1 [Example 78, (S)-N-(4-(3-aminopiperidin-1-yl)-5-(1-(2,2,2-trifluoroethyl)-1H-pyrazol-4-yl)pyridin-2-yl)-2-(2-fluoro-6-methoxyphenyl)pyrimidin-4-amine hydrochloride] | ≤ 10
COc1cccc(F)c1-c1nccc(Nc2cc(N3CCC[C@H](N)C3)c(C#CC3CCOCC3)cn2)n1 [Example 79, (S)-N-(4-(3-aminopiperidin-1-yl)-5-((tetrahydro-2H-pyran-4-yl)ethynyl)pyridin-2-yl)-2-(2-fluoro-6-methoxyphenyl)pyrimidin-4-amine hydrochloride] | ≤ 10
N[C@H]1CCCN(c2cc(Nc3ccnc(-c4cccnc4O)n3)ncc2-c2cnn(C3CCOCC3)c2)C1 [Example 80, (S)-3-(4-((4-(3-aminopiperidin-1-yl)-5-(1-(tetrahydro-2H-pyran-4-yl)-1H-pyrazol-4-yl)pyridin-2-yl)amino)pyrimidin-2-yl)pyridin-2-ol hydrochloride] | ≤ 10
COc1cccc(F)c1-c1nccc(Nc2cc(N3CCC[C@H](O)C3)c(-c3ccc(OC4CCN(C)CC4)cn3)cn2)n1 [Example 81, (S)-1-(6′-((2-(2-fluoro-6-methoxyphenyl)pyrimidin-4-yl)amino)-5-((1-methylpiperidin-4-yl)oxy)-[2,3′-bipyridin]-4′-yl)piperidin-3-ol] | > 100
COc1cccc(F)c1-c1nccc(Nc2cc(N3CCC[C@H](N)C3)c(-c3ccc(C4CCOCC4)nc3)cn2)n1 [Example 82, (S)-4-(3-aminopiperidin-1-yl)-N-(2-(2-fluoro-6-methoxyphenyl)pyrimidin-4-yl)-6′-(tetrahydro-2H-pyran-4-yl)-[3,3′-bipyridin]-6-amine hydrochloride] | ≤ 10
COc1cccc(F)c1-c1nccc(Nc2cc(N3CCC[C@H](N)C3)c(-c3ccc(C4CCN(C)CC4)nc3)cn2)n1 [Example 83, (S)-4-(3-aminopiperidin-1-yl)-N-(2-(2-fluoro-6-methoxyphenyl)pyrimidin-4-yl)-6′-(1-methylpiperidin-4-yl)-[3,3′-bipyridin]-6-amine hydrochloride] | ≤ 10
COc1cccc(F)c1-c1nccc(Nc2cc(N3CCCC(CC(F)(F)F)C3)c(-c3cnn(C4CCOCC4)c3)cn2)n1 (centres unmarked) [Example 84, 2-(2-fluoro-6-methoxyphenyl)-N-(5-(1-(tetrahydro-2H-pyran-4-yl)-1H-pyrazol-4-yl)-4-(3-(2,2,2-trifluoroethyl)piperidin-1-yl)pyridin-2-yl)pyrimidin-4-amine] | 10 to 50
COc1cccc(F)c1-c1nccc(Nc2cc(N3CCCC(CF)C3)c(-c3cnn(C4CCOCC4)c3)cn2)n1 (centres unmarked) [Example 85, 2-(2-fluoro-6-methoxyphenyl)-N-(4-(3-(fluoromethyl)piperidin-1-yl)-5-(1-(tetrahydro-2H-pyran-4-yl)-1H-pyrazol-4-yl)pyridin-2-yl)pyrimidin-4-amine] | ≤ 10
COc1cccc(F)c1-c1nccc(Nc2cc(N3CCCC(NC(C)=O)C3)c(-c3cnn(C4CCOCC4)c3)cn2)n1 (centres unmarked) [Example 86, N-(1-(2-((2-(2-fluoro-6-methoxyphenyl)pyrimidin-4-yl)amino)-5-(1-(tetrahydro-2H-pyran-4-yl)-1H-pyrazol-4-yl)pyridin-4-yl)piperidin-3-yl)acetamide] | 50 to 100
COc1cccc(F)c1-c1nccc(Nc2cc(N3CCC(C(F)(F)F)CC3)c(-c3cnn(C4CCOCC4)c3)cn2)n1 [Example 87, 2-(2-fluoro-6-methoxyphenyl)-N-(5-(1-(tetrahydro-2H-pyran-4-yl)-1H-pyrazol-4-yl)-4-(4-(trifluoromethyl)piperidin-1-yl)pyridin-2-yl)pyrimidin-4-amine] | ≤ 10
N[C@H]1CCCN(c2cc(Nc3ccnc(-c4cc5nccnc5cc4F)n3)ncc2-c2cnn(C(F)F)c2)C1 [Example 88, (S)-N-(4-(3-aminopiperidin-1-yl)-5-(1-(difluoromethyl)-1H-pyrazol-4-yl)pyridin-2-yl)-2-(7-fluoroquinoxalin-6-yl)pyrimidin-4-amine hydrochloride] | ≤ 10
N[C@H]1CCCN(c2cc(Nc3ccnc(-c4cc5nccnc5cc4F)n3)ncc2-c2cnn(CC(F)(F)F)c2)C1 [Example 89, (S)-N-(4-(3-aminopiperidin-1-yl)-5-(1-(2,2,2-trifluoroethyl)-1H-pyrazol-4-yl)pyridin-2-yl)-2-(7-fluoroquinoxalin-6-yl)pyrimidin-4-amine hydrochloride] | ≤ 10
COCCn1cc(-c2cnc(Nc3ccnc(-c4c(F)cccc4OC)n3)cc2N2CCC[C@H](N)C2)cn1 [Example 91, (S)-N-(4-(3-aminopiperidin-1-yl)-5-(1-(2-methoxyethyl)-1H-pyrazol-4-yl)pyridin-2-yl)-2-(2-fluoro-6-methoxyphenyl)pyrimidin-4-amine hydrochloride] | ≤ 10
COc1cccc(F)c1-c1nccc(Nc2cc(N3CCC4(CCNC4)CC3)c(-c3cnn(C4CCOCC4)c3)cn2)n1 [Example 92, N-(4-(2,8-diazaspiro[4.5]decan-8-yl)-5-(1-(tetrahydro-2H-pyran-4-yl)-1H-pyrazol-4-yl)pyridin-2-yl)-2-(2-fluoro-6-methoxyphenyl)pyrimidin-4-amine hydrochloride] | ≤ 10
COc1cccc(F)c1-c1nccc(Nc2cc(N3CCC4(CCNCC4)C3)c(-c3cnn(C4CCOCC4)c3)cn2)n1 [Example 93, N-(4-(2,8-diazaspiro[4.5]decan-2-yl)-5-(1-(tetrahydro-2H-pyran-4-yl)-1H-pyrazol-4-yl)pyridin-2-yl)-2-(2-fluoro-6-methoxyphenyl)pyrimidin-4-amine hydrochloride] | 10 to 50
COc1cccc(F)c1-c1nccc(Nc2cc(N3CC[C@@H](F)[C@H](O)C3)c(-c3cnn(C4CCOCC4)c3)cn2)n1 [Example 94, (3R,4R)-4-fluoro-1-(2-((2-(2-fluoro-6-methoxyphenyl)pyrimidin-4-yl)amino)-5-(1-(tetrahydro-2H-pyran-4-yl)-1H-pyrazol-4-yl)pyridin-4-yl)piperidin-3-ol] | ≤ 10
COc1cccc(F)c1-c1nccc(Nc2cc(N3CC[C@H](CO)[C@@H](O)C3)c(-c3cnn(C4CCOCC4)c3)cn2)n1 [Example 95, (3R,4R)-1-(2-((2-(2-fluoro-6-methoxyphenyl)pyrimidin-4-yl)amino)-5-(1-(tetrahydro-2H-pyran-4-yl)-1H-pyrazol-4-yl)pyridin-4-yl)-4-(hydroxymethyl)piperidin-3-ol] | ≤ 10
COc1cccc(F)c1-c1nccc(Nc2cc(N3CC[C@@H](N)C3)c(-c3cnn(C4CCOCC4)c3)cn2)n1 [Example 96, (R)-N-(4-(3-aminopyrrolidin-1-yl)-5-(1-(tetrahydro-2H-pyran-4-yl)-1H-pyrazol-4-yl)pyridin-2-yl)-2-(2-fluoro-6-methoxyphenyl)pyrimidin-4-amine hydrochloride] | ≤ 10
COc1cccc(F)c1-c1nccc(Nc2cc(N3CC[C@H](N)C3)c(-c3cnn(C4CCOCC4)c3)cn2)n1 [Example 97, (S)-N-(4-(3-aminopyrrolidin-1-yl)-5-(1-(tetrahydro-2H-pyran-4-yl)-1H-pyrazol-4-yl)pyridin-2-yl)-2-(2-fluoro-6-methoxyphenyl)pyrimidin-4-amine hydrochloride] | ≤ 10
COc1cccc(F)c1-c1nccc(Nc2cc(N3CCC[C@H](N)C3)c(-c3cnc(C4CCN(C)CC4)s3)cn2)n1 [Example 98, (S)-N-(4-(3-aminopiperidin-1-yl)-5-(2-(1-methylpiperidin-4-yl)thiazol-5-yl)pyridin-2-yl)-2-(2-fluoro-6-methoxyphenyl)pyrimidin-4-amine hydrochloride] | ≤ 10
N[C@H]1CCCN(c2cc(Nc3ccnc(-c4cc5nccnc5cc4F)n3)ncc2-c2ccc(C3CCOCC3)nc2)C1 [Example 99, (S)-4-(3-aminopiperidin-1-yl)-N-(2-(7-fluoroquinoxalin-6-yl)pyrimidin-4-yl)-6′-(tetrahydro-2H-pyran-4-yl)-[3,3′-bipyridin]-6-amine hydrochloride] | 10 to 50
COc1cccc(F)c1-c1nc(Nc2cc(N3CCC[C@H](N)C3)c(-c3cnn(CC(F)(F)F)c3)cn2)ccc1F [Example 100, 4-((S)-3-aminopiperidin-1-yl)-N-(5-fluoro-6-(2-fluoro-6-methoxyphenyl)pyridin-2-yl)-5-(1-(2,2,2-trifluoroethyl)-1H-pyrazol-4-yl)pyridin-2-amine hydrochloride] | ≤ 10
